What is called IC50 is the concentration at which inhibition is half-maximal. Broadly, the inhibition is the change of the read-out against control, counted positive when it falls. In general, solubility refers to how much of the substance goes into solution per volume. A high value points to a readily soluble substance. One may read the Kd as the constant that tells how readily two partners part at equilibrium. The low end stands for a tighter complex, the high end for a looser complex.

Structures are written as SMILES. Converted amounts (≈) assume the structure as drawn.

Data set [1] relates to MKN-45. Nature of the data set: Antiproliferative activity against human MKN-45 cells incubated for 48 hrs by SRB assay. Format: functional, cell-based. The note with it: MKN-45, 48 h. On the technique in general: The SRB assay estimates cell density from bound dye.
For the next data set, the system named is MGC-803. In words: Antiproliferative activity against human MGC-803 cells incubated for 48 hrs by SRB assay. The data set is classed as functional, cell-based. The settings on record: MGC-803, 48 h.
The target in the next data set is hERG (KCNH2) (Homo sapiens, UniProt Q12809). Nature of the data set: Inhibition of human ERG at 3 uM relative to control. The data set is classed as toxicity.
The test system of data set [2] is MKN-45. In words: Antitumor activity against human MKN-45 cells xenografted in BALB/c mouse assessed as tumor growth inhibition at 15 mg/kg/day, ip measured every 3 days for 21 days. Format: functional. The settings on record: MKN-45, 504 h, time 21 day, read-out: TGI. For orientation: Xenograft models place foreign cells or tissue in a host animal.
A short description of data set [3]: Aqueous solubility of compound in PBS at pH 2. The data set is classed as physicochemical.
Data set [4] is described as follows: Aqueous solubility of compound in PBS at pH 7.4. Format: physicochemical.
A short description of data set [5]: Aqueous solubility of compound in PBS at pH 9. Format: physicochemical.
The test system of data set [6] is MKN-45. Nature of the data set: Antitumor activity against human MKN-45 cells xenografted in BALB/c mouse assessed as tumor growth inhibition at 30 mg/kg/day, ip measured every 3 days for 21 days. Format: functional. The settings on record: MKN-45, 504 h, time 21 day, read-out: TGI.
A further data set concerns the target Myoferlin (Homo sapiens, UniProt Q9NZM1). Nature of the data set: Binding affinity to human MYOF C2D by SPR method. For orientation: In SPR one partner is held on a chip, and binding of the other changes the refractive index at the surface.

hERG (KCNH2), sequence (Q12809 whole entry): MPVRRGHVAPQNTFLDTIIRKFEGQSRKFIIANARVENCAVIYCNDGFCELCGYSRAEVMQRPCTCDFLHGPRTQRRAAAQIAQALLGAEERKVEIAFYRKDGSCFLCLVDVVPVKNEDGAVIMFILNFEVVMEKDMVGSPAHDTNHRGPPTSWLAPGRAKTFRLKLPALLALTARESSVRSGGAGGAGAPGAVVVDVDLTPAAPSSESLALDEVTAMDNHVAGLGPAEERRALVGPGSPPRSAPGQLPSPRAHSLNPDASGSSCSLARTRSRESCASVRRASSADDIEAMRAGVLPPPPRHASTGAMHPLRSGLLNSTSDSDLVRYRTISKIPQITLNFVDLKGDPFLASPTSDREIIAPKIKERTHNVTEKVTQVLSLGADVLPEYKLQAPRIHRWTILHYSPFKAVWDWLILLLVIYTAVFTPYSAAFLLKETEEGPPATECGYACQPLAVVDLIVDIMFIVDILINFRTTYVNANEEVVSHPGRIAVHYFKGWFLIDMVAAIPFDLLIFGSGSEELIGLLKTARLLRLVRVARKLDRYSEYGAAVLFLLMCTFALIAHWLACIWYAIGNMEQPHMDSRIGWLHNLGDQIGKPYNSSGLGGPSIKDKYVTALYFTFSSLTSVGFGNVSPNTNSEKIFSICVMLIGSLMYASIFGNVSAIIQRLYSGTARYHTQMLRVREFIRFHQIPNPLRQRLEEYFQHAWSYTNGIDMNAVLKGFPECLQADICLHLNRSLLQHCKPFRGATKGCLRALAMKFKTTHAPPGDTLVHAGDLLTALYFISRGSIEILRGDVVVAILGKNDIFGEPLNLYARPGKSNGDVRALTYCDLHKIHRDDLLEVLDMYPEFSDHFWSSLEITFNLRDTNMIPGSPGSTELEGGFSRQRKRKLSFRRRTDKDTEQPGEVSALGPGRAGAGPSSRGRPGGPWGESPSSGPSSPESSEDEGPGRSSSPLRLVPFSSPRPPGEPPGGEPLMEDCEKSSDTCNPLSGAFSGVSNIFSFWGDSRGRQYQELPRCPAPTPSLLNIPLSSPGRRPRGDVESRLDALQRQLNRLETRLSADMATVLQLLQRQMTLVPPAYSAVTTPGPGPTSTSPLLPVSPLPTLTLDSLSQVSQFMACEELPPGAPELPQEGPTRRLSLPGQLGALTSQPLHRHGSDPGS
Myoferlin, sequence (Q9NZM1 whole entry): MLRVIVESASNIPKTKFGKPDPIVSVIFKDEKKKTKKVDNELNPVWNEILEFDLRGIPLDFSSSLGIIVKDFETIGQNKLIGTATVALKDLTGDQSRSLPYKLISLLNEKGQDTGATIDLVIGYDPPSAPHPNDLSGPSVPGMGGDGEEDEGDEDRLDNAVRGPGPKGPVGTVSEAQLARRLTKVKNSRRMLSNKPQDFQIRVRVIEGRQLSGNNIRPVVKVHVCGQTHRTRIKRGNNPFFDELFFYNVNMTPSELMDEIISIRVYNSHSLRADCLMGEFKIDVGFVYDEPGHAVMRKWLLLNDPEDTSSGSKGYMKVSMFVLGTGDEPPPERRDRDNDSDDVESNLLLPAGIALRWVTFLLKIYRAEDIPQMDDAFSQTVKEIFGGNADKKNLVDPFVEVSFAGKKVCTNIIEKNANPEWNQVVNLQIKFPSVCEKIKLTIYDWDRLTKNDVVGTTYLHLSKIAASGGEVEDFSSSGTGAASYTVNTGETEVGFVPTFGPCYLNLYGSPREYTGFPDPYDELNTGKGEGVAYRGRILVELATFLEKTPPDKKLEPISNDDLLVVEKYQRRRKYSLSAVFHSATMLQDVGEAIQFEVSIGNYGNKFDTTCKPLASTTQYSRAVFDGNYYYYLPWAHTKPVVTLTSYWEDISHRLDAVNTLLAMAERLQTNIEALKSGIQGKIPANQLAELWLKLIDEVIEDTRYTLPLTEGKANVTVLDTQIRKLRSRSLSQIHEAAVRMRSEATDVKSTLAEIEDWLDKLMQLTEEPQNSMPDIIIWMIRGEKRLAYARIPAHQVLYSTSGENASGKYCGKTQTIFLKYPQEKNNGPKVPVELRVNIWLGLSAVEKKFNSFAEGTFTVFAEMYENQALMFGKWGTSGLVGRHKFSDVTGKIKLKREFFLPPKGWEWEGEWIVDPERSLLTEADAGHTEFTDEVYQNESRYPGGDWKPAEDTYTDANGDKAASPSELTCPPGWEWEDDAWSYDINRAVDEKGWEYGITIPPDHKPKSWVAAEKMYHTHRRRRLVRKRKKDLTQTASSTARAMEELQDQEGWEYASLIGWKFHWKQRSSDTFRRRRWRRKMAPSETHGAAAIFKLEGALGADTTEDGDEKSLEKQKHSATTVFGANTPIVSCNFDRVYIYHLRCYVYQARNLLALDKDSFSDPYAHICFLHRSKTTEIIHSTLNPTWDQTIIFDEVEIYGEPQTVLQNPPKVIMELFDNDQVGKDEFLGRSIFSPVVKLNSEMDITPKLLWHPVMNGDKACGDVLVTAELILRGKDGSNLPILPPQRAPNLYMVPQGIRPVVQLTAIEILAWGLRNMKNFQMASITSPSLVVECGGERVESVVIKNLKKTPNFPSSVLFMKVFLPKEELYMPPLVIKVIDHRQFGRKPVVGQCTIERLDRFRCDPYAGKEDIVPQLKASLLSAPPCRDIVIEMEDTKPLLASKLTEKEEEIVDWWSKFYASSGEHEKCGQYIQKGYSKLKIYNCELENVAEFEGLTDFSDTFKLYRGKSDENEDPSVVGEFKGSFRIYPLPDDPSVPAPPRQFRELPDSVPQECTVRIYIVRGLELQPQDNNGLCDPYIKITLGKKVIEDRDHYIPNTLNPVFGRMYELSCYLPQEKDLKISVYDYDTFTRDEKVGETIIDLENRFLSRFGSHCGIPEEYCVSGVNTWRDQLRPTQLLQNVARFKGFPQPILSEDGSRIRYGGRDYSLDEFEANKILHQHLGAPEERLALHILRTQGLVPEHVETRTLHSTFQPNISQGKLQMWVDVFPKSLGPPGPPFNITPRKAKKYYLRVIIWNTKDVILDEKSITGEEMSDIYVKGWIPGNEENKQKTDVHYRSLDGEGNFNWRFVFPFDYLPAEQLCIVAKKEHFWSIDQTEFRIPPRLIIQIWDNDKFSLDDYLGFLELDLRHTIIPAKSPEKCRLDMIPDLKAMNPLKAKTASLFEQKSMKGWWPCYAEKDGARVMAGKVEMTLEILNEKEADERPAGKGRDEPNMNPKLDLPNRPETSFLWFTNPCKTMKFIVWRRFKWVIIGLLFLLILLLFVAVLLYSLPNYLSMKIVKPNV

Turning to `CCc1nc(-c2cccc(OC)c2)n(-c2cccc(C(=O)NCCCCn3nccn3)c2)n1`, the IC50 in the data set on MKN-45 [1] amounted to 9140 nM; in the data set on MGC-803, 7.29 µM.
As to `CCc1nc(-c2ccc(OC)cc2)n(-c2cccc(C(=O)NCCCCn3cncn3)c2)n1`, the IC50 is more than 10000 nM in the data set with MKN-45 [1] and more than 10 µM with MGC-803.
Consider `CCc1nc(-c2ccc(OC)cc2)n(-c2cccc(C(=O)NCCCCCCn3nccn3)c2)n1`, for which the IC50 in the data set with MKN-45 [1] was 9590 nM; in the data set with MGC-803, more than 10 µM.
For the compound `CCc1nc(-c2ccc(OC)cc2)n(-c2cccc(C(=O)NCCCCc3cccs3)c2)n1`, the half-inhibitory concentration (IC50) in the data set on MKN-45 [1] turned out to be 760 nM; in the data set on MGC-803 it was 0.52 µM.
Regarding `COc1cc(N)c(Cl)cc1C(=O)NC1CCN(CCCOc2ccc(F)cc2)CC1OC` (stereo not drawn) [CISAPRIDE], the inhibition at 3 µM against hERG (KCNH2) turned out to be 107%.
Consider `CCc1nc(-c2ccc(OC)cc2)n(-c2cccc(C(=O)NCCCCc3ccccn3)c2)n1`, for which the IC50 is more than 10000 nM with MKN-45 [1] and 3.24 µM with MGC-803.
Taken in the same sequence, the figures for `CCc1nc(-c2ccc(OC(F)(F)F)cc2)n(-c2cccc(C(=O)NCCCCn3nccn3)c2)n1` were 5140 nM and 3.87 µM.
In the case of `CCc1nc(-c2ccc(OC)cc2)n(-c2cccc(C(=O)NCCCCn3ccnn3)c2)n1`, the IC50 in the data set with MKN-45 [1] was more than 10000 nM; with MGC-803, more than 10 µM.
`CCc1nc(-c2ccc(OC)cc2)n(-c2cccc(C(=O)NCCCCn3nc(Br)c(Br)n3)c2)n1`: the IC50 in the data set with MKN-45 [1] is more than 10000 nM; with MGC-803 it was 9.8 µM.
Turning to `CCc1nc(-c2ccc(OC)nc2)n(-c2cccc(C(=O)NCCCCn3nccn3)c2)n1`, the IC50 with MKN-45 [1] turned out to be 2750 nM; in the data set on MGC-803, 7.87 µM.
In the case of `CCc1nc(-c2ccc(OC)cc2)n(-c2cccc(C(=O)NCCCCn3cnnn3)c2)n1`, the figures for the IC50 in the data set on MKN-45 [1] and with MGC-803 were more than 10000 nM and more than 10 µM, respectively.
With `CCc1nc(-c2ccc(OC)cn2)n(-c2cccc(C(=O)NCCCCn3nccn3)c2)n1`, the IC50 with MKN-45 [1] was found to be 250 nM; in the data set with MGC-803, 1.7 µM.
On to `O=c1[nH]cc(F)c(=O)[nH]1` [FLUOROURACIL], for which the inhibition in vivo at 15 mg/kg/day with MKN-45 [2] was 39.2%.
`CCc1nc(-c2ccc(OC)cc2)n(-c2cccc(C(=O)NCCCCn3cccn3)c2)n1`: the IC50 with MKN-45 [1] was determined as 540 nM; in the data set with MGC-803, 0.75 µM. The solubility turned out to be 1120 µM (≈ 499 µg/mL) in data set [3], 393 µM (≈ 175 µg/mL) in data set [4] and 352 µM (≈ 156 µg/mL) in data set [5].
In the case of `CCc1nc(-c2ccc(C(F)(F)F)cc2)n(-c2cccc(C(=O)NCCCCn3nccn3)c2)n1`, the IC50 in the data set on MKN-45 [1] was 2700 nM; with MGC-803, 3.14 µM.
With `CCc1nc(-c2ccc(OC)cc2)n(-c2cccc(C(=O)NCCCCN3CCCCC3)c2)n1`, the IC50 in the data set with MKN-45 [1] was more than 10000 nM; with MGC-803 it was more than 10 µM.
Regarding `CCc1nc(-c2ccccc2)n(-c2cccc(C(=O)NCCCCn3nccn3)c2)n1`, the IC50 in the data set with MKN-45 [1] was 3120 nM; in the data set on MGC-803 it was 6.83 µM.
Regarding `CCc1nc(-c2ccc(C)cc2)n(-c2cccc(C(=O)NCCCCn3nccn3)c2)n1`, the IC50 in the data set on MKN-45 [1] is 300 nM; with MGC-803 it was 0.6 µM.
`CCc1nc(-c2ccc(Br)cc2)n(-c2cccc(C(=O)NCCCCn3nccn3)c2)n1`: the values for the IC50 with MKN-45 [1] and with MGC-803 were more than 10000 nM and 11.1 µM, respectively.
For `CCc1nc(-c2ccc(O)cc2)n(-c2cccc(C(=O)NCCCCn3nccn3)c2)n1`, the IC50 with MKN-45 [1] turned out to be 490 nM; in the data set on MGC-803 it was 0.94 µM.
With `CCc1nc(-c2ccc(OC)cc2)n(-c2cccc(C(=O)NCCCn3nccn3)c2)n1`, the IC50 with MKN-45 [1] is more than 10000 nM; with MGC-803, more than 10 µM.
Consider `CCc1nc(-c2ccc(Cl)cc2)n(-c2cccc(C(=O)NCCCCn3nccn3)c2)n1`, for which the IC50 in the data set on MKN-45 [1] was determined as 330 nM; with MGC-803, 0.73 µM.
Consider `CCc1nc(-c2ccc(OC)cc2)n(-c2cccc(C(=O)NCCCCn3cc(Br)cn3)c2)n1`, for which the IC50 in the data set on MKN-45 [1] is 4460 nM; in the data set on MGC-803, 4.38 µM.
`CCc1nc(-c2ncc(OC)cn2)n(-c2cccc(C(=O)NCCCCn3nccn3)c2)n1`: the IC50 in the data set with MKN-45 [1] worked out at 500 nM; in the data set with MGC-803 it was 0.56 µM.
In the case of `CCc1nc(-c2ncc(OC)cn2)n(-c2cccc(C(=O)NCCCCc3ccccc3)c2)n1`, the IC50 was 410 nM with MKN-45 [1] and 0.25 µM in the data set with MGC-803. Moreover, the solubility in data set [3] was 1.7 µM (≈ 0.776 µg/mL); in data set [4] it was less than 1.6 µM; in data set [5], less than 1.6 µM. The inhibition in vivo at 30 mg/kg/day with MKN-45 [6] turned out to be 52.2%.
`CCCc1ccc(-c2nc(CC)nn2-c2cccc(C(=O)NCCCCn3nccn3)c2)cc1`: the figures for the concentration for half-maximal inhibition (IC50) in the data set with MKN-45 [1] and in the data set with MGC-803 were 1970 nM and 4.07 µM, respectively.
Regarding `CCc1nc(-c2ccc(OC)cc2)n(-c2cccc(C(=O)NCCCCn3ncnn3)c2)n1`, the results for the IC50 with MKN-45 [1] and in the data set with MGC-803 were 2860 nM and 0.58 µM, respectively. Besides, the solubility is 877 µM (≈ 392 µg/mL) in data set [3], 194 µM (≈ 86.7 µg/mL) in [4] and 186 µM (≈ 83.1 µg/mL) in data set [5].
With `CCc1nc(-c2ccc([N+](=O)[O-])cc2)n(-c2cccc(C(=O)NCCCCn3nccn3)c2)n1`, the IC50 is 880 nM in the data set with MKN-45 [1] and 5.52 µM with MGC-803.
As for `CCc1nc(-c2ccc(OC)cc2)n(-c2cccc(C(=O)NCCCCc3ccncc3)c2)n1`, the IC50 in the data set with MKN-45 [1] was more than 10000 nM; in the data set with MGC-803 it was more than 10 µM.
As for `CCc1nc(-c2ccc(F)cc2)n(-c2cccc(C(=O)NCCCCn3nccn3)c2)n1`, the figures for the IC50 in the data set with MKN-45 [1] and in the data set on MGC-803 were 300 nM and 1.37 µM, respectively.
Taken in the same sequence, the figures for `CCc1nc(-c2ccc(OC)cc2)n(-c2cccc(C(=O)NCCn3nccn3)c2)n1` were more than 10000 nM and more than 10 µM.
As to `CCc1nc(-c2ccc(OC)cc2)n(-c2cccc(C(=O)NCCCCn3ncc(Br)n3)c2)n1`, the IC50 worked out at 260 nM with MKN-45 [1] and 0.27 µM in the data set on MGC-803. In addition, the solubility was 21.4 µM (≈ 11.2 µg/mL) in data set [3], less than 1.6 µM in data set [4] and less than 1.6 µM in data set [5].
Turning to `CCc1nc(-c2ccc(OC)cc2)n(-c2cccc(C(=O)NCCCCn3ccnc3)c2)n1`, the figures for the IC50 in the data set on MKN-45 [1] and in the data set with MGC-803 were more than 10000 nM and more than 10 µM, respectively.
Regarding `CCc1nc(-c2ccccc2OC)n(-c2cccc(C(=O)NCCCCn3nccn3)c2)n1`, the IC50 in the data set with MKN-45 [1] is 2580 nM; in the data set with MGC-803 it was 8.31 µM.
At Myoferlin, `COc1ccccc1N1C(=O)CSC1c1cccc(C(=O)NCCCCc2ccccc2)c1` (stereo not drawn) returned a Kd of 1330 nM.
On to `CCc1nc(-c2ccc(OC)cc2)n(-c2cccc(C(=O)NCCCCCn3nccn3)c2)n1`, for which the results for the IC50 with MKN-45 [1] and in the data set with MGC-803 were 6610 nM and 2.12 µM, respectively.
Take `CCc1nc(-c2ccc(OC)cc2)n(-c2cccc(C(=O)NCCCCn3cc(Br)nn3)c2)n1`: the IC50 is more than 10000 nM in the data set with MKN-45 [1] and more than 10 µM in the data set on MGC-803.
Consider `CCc1ccc(-c2nc(CC)nn2-c2cccc(C(=O)NCCCCn3nccn3)c2)cc1`, for which the half-inhibitory concentration (IC50) stood at 400 nM with MKN-45 [1] and 1.01 µM in the data set on MGC-803.
In the case of `CCc1nc(-c2ccc(OC)cc2)n(-c2cccc(C(=O)NCCCCn3cc(F)cn3)c2)n1`, the IC50 was 5910 nM in the data set with MKN-45 [1] and 10.8 µM in the data set on MGC-803.

The record behind these values is ChEMBL document CHEMBL5356958, “Discovery of a Highly Potent and Selective MYOF Inhibitor with Improved Water Solubility for the Treatment of Gastric Cancer” (J Med Chem, 2023).
